Entries after “also recorded” stand apart in the source; their conditions may differ. Like-named read-outs stand apart in the source and are kept apart here.
Assays:
colorectal cancer (CRC) = experiment: In vivo combination of PBR06 with Cetuximab in WT and mutant KRAS CRC cohorts; design: species or system mice
From the text: This synergism is shown with both wild type (WT) and mutant KRAS colorectal cancer (CRC) cohorts (mice).

[1] = system: HCT116 p53−/− human CRC cells; experiment: Immunoblotting of markers in HCT116 p53−/− cells (mutant KRAS) after 24 h drug exposure; type: cell-based
Experimental: In these studies, HCT116 p53−/− human CRC cells were exposed to drug for 24 h, harvested, and the protein levels of various markers were assayed by immunoblotting.

LIM 2405 human CRC cells = experiment: Immunoblotting of markers in LIM 2405 cells (mutant B-RAF) after 24 h drug exposure; type: cell-based
Experimental: In these studies, LIM 2405 human CRC cells were exposed to drug for 24 h, harvested, and the protein levels of various markers were assayed by immunoblotting.

TSPO [2] = biological target: T1, TSPO (Rattus norvegicus, UniProt P16257); experiment: Radioligand displacement of [3H]PK 11195 in C6 glioma cell / tumor lysate; type: binding; design: from tissue; host or cells: C6 glioma tumour and normal brain / other tissues of living rats; conditions: for binding affinity: whole tumor lysate; for binding affinity (in words): tumor lysate / C6 cell lysate
Experimental: Given our focus of targeting TSPO expressed in tumors, affinity assays will be conducted in whole and fractionated tumor lysate.
In this Example Glioma-bearing rats were imaged with [^18F]PBR06 in a microPET system. Dynamic acquisitions were acquired simultaneously upon injection of 70-100 MBq/0.2 mL [^18F]PBR06. Over the course of scanning, arterial blood was collected to derive the input function, with HPLC radiometabolite analysis performed on selected samples for arterial input function correction. Compartmental modeling of the PET data was performed using the corrected arterial input function. Specific tumor cell binding of PBR06 was evaluated by radioligand displacement of [^3H]PK 11195 with PBR06 in vitro and by displacement of [^18F]PBR06 with excess PBR06 in vivo. Immediately following imaging, tumor tissue and adjacent healthy brain were harvested for assay of TSPO protein levels by western blotting and immunohistochemistry.
Radioligand displacement of the high-affinity isoquinoline carboxamide TSPO ligand [^3H]PK 11195 was used to evaluate the specific binding of the non-radioactive analogue PBR06 in C6 glioma cell line homogenates in vitro (FIG. 10). […]

DiFi human CRC cells = experiment: Immunoblotting of markers in DiFi cells (WT KRAS) after 24 hr drug exposure; type: cell-based
Experimental: In these studies, cultured cells were exposed to drug for 24 hr, harvested, and the protein levels of various markers were assayed by immunoblotting.

TSPO [3] = biological target: T1, TSPO; experiment: Compartmental binding assay in heavy and light fractions of C6 cell lysate; design: from tissue; host or cells: C6 glioma tumour and normal brain / other tissues of living rats
From the text: In order to fully characterize TSPO expression profile in the healthy tissues and C6 cells, this example includes subcellular studies. The present inventors separated two fractions of tissue and C6 cell lysates based on the density difference. […] Based on these two fractions, we performed western blot to determine TSPO expression profile in a variety of healthy tissues and C6 cell lysates. […] Thus, we evaluated the binding potential of VUIIS1008 in different fractions.

nuclear TSPO = experiment: Fractional (nuclear) displacement assay against [3H]PK 11195; conditions: fractional nuclear binding assay, displacement of [3H]PK 11195
Experimental: The characterization strategy can begin with a high-throughput fractional displacement assay developed in our laboratory (FIG. 8). This assay capitalizes upon the fact that PK 11195 binds nuclear and mitochondrial TSPO. Fractionated tumor lysate material containing an equivalent distribution of nuclear and mitochondrial TSPO (32) is incubated with [^3H]PK 11195 and candidate ligands. After incubation, protein is collected by centrifugation and microspotted in triplicate into high-density arrays (˜1 uL). The resultant radioligand displacement of each assay is quantified using a high-resolution digital autoradiography imaging system (BiospaceLab).

TSPO [4] = biological target: T1, TSPO; experiment: Dynamic microPET of [18F]VUIIS-1008 in C6 glioma-bearing rats, with compartmental modeling and in vivo displacement; design: from tissue; host or cells: C6 glioma tumour and normal brain / other tissues of living rats; conditions: for VT (calculated): mean ± SE; for tracer distribution tumor vs normal brain (in words): C6 glioma
Experimental: Dynamic microPET imaging can be performed as in tumor-bearing and non-tumor-bearing rats. […] […] For displacement studies, ‘cold’ analog (10 mg/kg) are injected via jugular catheter 30 min after radiotracer administration. Prior to PET scanning, tumors are localized in tumor-bearing rats using MRI, including T2-weighted and diffusion-weighted scans. For longitudinal studies, tumor volumes are measured using a three-dimensional, T2-weighted fast spin-echo sequence on a Varian 9.4 T horizontal bore imaging system.
A 3-compartment, 4-rate constant kinetic model can be used to characterize [^18F]PBR06 pharmacokinetics. […] These rate constants can be used to calculate the total volume of distribution (VT) in tissues of interest. Modeling will be carried out for whole brain (excluding tumor) and tumor by fitting time-activity curves (TACs) of each region.
Before PET imaging with ^18F-VUIIS1008, brain tumors were localized with T2-weighted MRI. […] After the initial spike in radioactivity consistent with tracer injection, ^18F-VUIIS1008 rapidly cleared from the plasma. Imaging-matched brains were processed for staining and immunohistochemistry. Using standard hematoxylin and eosin staining to localize the tumor, the present inventors discovered that TSPO expression was significant higher in tumor than in the adjacent healthy brain.
In order to fully evaluate the novel performance of ^18F-VUIIS1008, we have also determined ^18F-VUIIS 1008 pharmacodynamics with arterial input function.

TSPO [5] = biological target: T2, TSPO (Mus musculus, UniProt P50637); experiment: TSPO-PET with 18F-VUIIS1008 in Lrig1-CreERT2;Apcfl/+ mouse model of colorectal cancer; type: in vivo
T2 construct: from tissue; host or cells: colon tumours (Lrig1-CreERT2;Apcfl/+ mice) and pancreatic tumours (Ptf1a-cre;LSL-KrasG12D;Tgfbr2fl/fl mice) in living mice
Experimental: All studies were conducted in accordance with federal and institutional guidelines. Lrig1-CreERT2/+mice (35) were crossed to Apcfl/+mice to generate Lrig1-CreERT2/+; Apcfl/+mice. Six to eight week old mice were injected with 2 mg tamoxifen (Sigma Aldrich) intraperitoneally for three consecutive days to induce tumor formation. Mice were imaged approximately 100 days after injection of tamoxifen and then sacrificed
Colonoscopy (KARL STORZ-SCB Endoscope System) was performed monthly beginning two months after tamoxifen induction. Mice are anesthetized and immobilized using 2% isofluorane anesthesia in 100% oxygen at 2 L/min. Tumor formation within a single mouse was tracked over time. Upon visual detection of distal colon tumors mice were designated for PET imaging.
PET imaging was performed using a dedicated small animal PET scanner (Concorde Microsystems Focus 220) as described. Briefly, mice were maintained under 2% isofluorane anesthesia in 100% oxygen at 2 L/min and kept warm via a circulating water heating pad during the PET scan. Animals were administered 7.4-9.3 MBq of [^18F]-VUIIS1008 intravenously and allowed free access to food and water during a 50 minute uptake period and a 20 minute PET acquisition. Scans were reconstructed using OSEM3D/MAP.

[6] = PBR06 single agent, increasing concentrations, 24 h
[7] = C6 glioma cell lysate / tumor lysate, read-out: IC50, displacement of [3H]PK 11195
[8] = 1-tissue model, tumor, mean (SE in next line)

COc1ccc(OC)c(CN(C(=O)CF)c2ccccc2Oc2ccccc2)c1 [PBR06]
effect in combination with Cetuximab (in words) (colorectal cancer (CRC); WT and mutant KRAS CRC cohorts (mice)): in vivo synergistic effect
tolerability (in words) (colorectal cancer (CRC); mice): well tolerated among the test subjects
cleaved caspase 3 (apoptosis) ([1]; C225 combined with all but the lowest concentration of PBR06): significant levels of cleaved caspase 3 were induced
pERK levels ([1]; PBR06 in combination with elevated concentrations of C225): pERK could be fully inhibited at elevated concentrations of C225 with PBR06
pERK levels [1, 6]: modestly elevated levels of pERK
p27 levels (cell cycle arrest) ([1]; lowest concentration of C225 combined with PBR06 at all concentrations): resulted in elevated p27
p21 induction (LIM 2405 human CRC cells; PBR06 in combination with C225, even the lowest dosages of C225): significant induction of p21
pERK levels (LIM 2405 human CRC cells; [6]): elevated levels of pERK
IC50 (TSPO [2]): ~12.6 nM
IC50 (TSPO [2]; [7]): 12 nM
binding affinity (TSPO [2]): ~12 nM
p27 levels (cell cycle arrest) (DiFi human CRC cells; PBR06 single agent 10 nM, 24 hr): significantly elevated p27
pERK levels (DiFi human CRC cells; PBR06 single agent, increasing concentrations 10 nM-10 uM, 24 hr): modestly elevated levels of pERK
enhancement in the efficacy of C225 by combination with TSPO ligand (DiFi human CRC cells; WT KRAS CRC cell line): approximately 10 fold
p27 levels (cell cycle arrest) (DiFi human CRC cells; lowest dosage of C225 (+) combined with all dosages of PBR06): significantly elevated levels of p27 could be achieved
binding affinity in heavy (nuclei) and light (mitochondria) fractions (in words) (TSPO [3]): bind to the light fraction selectively with a high binding affinity

CCc1cc(CC)n2nc(-c3ccc(OCCF)cc3)c(CC(=O)N(CC)CC)c2n1 [VUIIS-1008]
affinity for nuclear TSPO (in words) (nuclear TSPO): nanomolar binding affinity; also recorded: targets nuclear TSPO
fold higher binding affinity compared with DPA-714 and PBR06 (TSPO [2]; C6 cell lysate, against [3H]PK11195): 30 fold
IC50 (TSPO [2]; [7]): ~1 nM
IC50 fold lower than PBR06 or DPA-714 (TSPO [2]; against 3H-PK 11195 in tumor lysate): approximately 10 fold
binding affinity (in words) (TSPO [2]; listed as VUIIS1008): sub-nanomolar binding affinity
k6 (TSPO [4]; 3-tissue model, tumor, mean, listed as VUIIS1008): near-zero K6 in the tumor
binding affinity in heavy (nuclei) and light (mitochondria) fractions (in words) (TSPO [3]): comparable high binding affinity of VUIIS1008 in both two fractions

CCc1cc(CC)n2nc(-c3ccc(OCCF)cc3)c(CC(=O)N(CC)CC)c2n1 [[^18F]VUIIS-1008]
binding affinity (in words) (TSPO [2]): improved binding affinity in tumor lysate compared to PBR06 or DPA-714
binding affinity (TSPO [2]): ~1 nM
tracer uptake in distal colon (in words) (TSPO [5]; Lrig1-CreERT2;Apcfl/+ mice with colonoscopy confirmed tumors): increased, focal uptake in the distal colon compared to adjacent non-tumor tissue and wild type controls
tracer uptake in colon (in words) (TSPO [5]; wild type mice): low tracer uptake in the colon
K1 (TSPO [4]; 1-tissue model, brain, mean): 0.3161 mL/g/min
k2 (TSPO [4]; 1-tissue model, brain, mean): 0.3048 min⁻¹
VT (calculated) (TSPO [4]; 1-tissue model, brain): 1.3 ± 0.2
K1 (TSPO [4]; [8]): 0.3535 mL/g/min
k2 (TSPO [4]; [8]): 0.0964 min⁻¹
VT (calculated) (TSPO [4]; 1-tissue model, tumor): 3.6 ± 0.6
K1 (TSPO [4]; 2-tissue model, brain, mean): 0.5856 mL/g/min
k2 (TSPO [4]; 2-tissue model, brain, mean): 2.0217 min⁻¹
k3 (TSPO [4]; 2-tissue model, brain, mean): 0.2903 min⁻¹
k4 (TSPO [4]; 2-tissue model, brain, mean): 0.0912 min⁻¹
VT (calculated) (TSPO [4]; 2-tissue model, brain): 1.7 ± 0.4
K1 (TSPO [4]; 2-tissue model, tumor, mean): 0.5448 mL/g/min
k2 (TSPO [4]; 2-tissue model, tumor, mean): 1.2413 min⁻¹
k3 (TSPO [4]; 2-tissue model, tumor, mean): 0.1300 min⁻¹
k4 (TSPO [4]; 2-tissue model, tumor, mean): 0.0234 min⁻¹
VT (calculated) (TSPO [4]; 2-tissue model, tumor): 4.6 ± 0.8
K1 (TSPO [4]; 3-tissue model, brain, mean): 0.6925 mL/g/min
k2 (TSPO [4]; 3-tissue model, brain, mean): 3.7619 min⁻¹
k3 (TSPO [4]; 3-tissue model, brain, mean): 0.8194 min⁻¹
k4 (TSPO [4]; 3-tissue model, brain, mean): 0.2569 min⁻¹
k5 (TSPO [4]; 3-tissue model, brain, mean): 0.5314 min⁻¹
k6 (TSPO [4]; 3-tissue model, brain, mean): 0.1748 min⁻¹
VT (calculated) (TSPO [4]; 3-tissue model, brain): 1.4 ± 0.2
K1 (TSPO [4]; 3-tissue model, tumor, mean): 0.6449 mL/g/min
k2 (TSPO [4]; 3-tissue model, tumor, mean): 2.9459 min⁻¹
k3 (TSPO [4]; 3-tissue model, tumor, mean): 0.4597 min⁻¹
k4 (TSPO [4]; 3-tissue model, tumor, mean): 0.1371 min⁻¹
k5 (TSPO [4]; 3-tissue model, tumor, mean): 0.2304 min⁻¹
VT (calculated) (TSPO [4]; 3-tissue model, tumor): 6.4 ± 1.8
k6 (TSPO [4]; 3-tissue model, tumor, mean, listed as [18F]VUIIS1008): 0.0574 min⁻¹
stability in plasma, HPLC radiometabolite assay (in words) (TSPO [4]; 90 min dynamic PET scan): high stability of this probe in the 90 min dynamic PET scan
tracer distribution tumor vs normal brain (in words) (TSPO [4]): robust tumor uptake, yet very little normal brain uptake
tracer distribution tumor vs normal brain (in words) (TSPO [4]; listed as 18F-VUIIS1008): most of the uptake in the brain was localized to the tumor, with only modest accumulation in the adjacent, normal brain
clearance and accumulation compared with 18F-DPA714 (in words) (TSPO [4]; glioma-bearing rats): a similar clearance and accumulation in brain, while a faster clearance and a slower accumulation in tumor
displacement from the tumor by 'cold' VUIIS-1008 (in words) (TSPO [4]; in vivo displacement): no detectable displacement from the tumor
increase in tracer levels in plasma on displacement with 'cold' VUIIS-1008 (TSPO [4]; in vivo displacement): 25 fold
